How the values were obtained:
DOR = DOR (Homo sapiens, UniProt P41143); test: DOR-Tango β-arrestin2 recruitment, dose–response; format: cell-based; conditions: for agonist / allosteric activity at DOR: 10 μM modulator, in the presence or absence of DADLE; for effect of extracellular Na+ on agonistic activity: reducing extracellular Na+ to 30 mM; for reversal of the agonist activity of EIPA: 10 μM EIPA, increasing antagonist
different GPCRs = conditions: cited from earlier work
DOR D95A2.50 = DOR D95A2.50 (Homo sapiens, UniProt P41143, D95A); test: Mutant DOR-Tango β-arrestin2 recruitment; format: cell-based; conditions: 10 μM modulator
Sequence of DOR D95A2.50 (P41143 whole entry D95A): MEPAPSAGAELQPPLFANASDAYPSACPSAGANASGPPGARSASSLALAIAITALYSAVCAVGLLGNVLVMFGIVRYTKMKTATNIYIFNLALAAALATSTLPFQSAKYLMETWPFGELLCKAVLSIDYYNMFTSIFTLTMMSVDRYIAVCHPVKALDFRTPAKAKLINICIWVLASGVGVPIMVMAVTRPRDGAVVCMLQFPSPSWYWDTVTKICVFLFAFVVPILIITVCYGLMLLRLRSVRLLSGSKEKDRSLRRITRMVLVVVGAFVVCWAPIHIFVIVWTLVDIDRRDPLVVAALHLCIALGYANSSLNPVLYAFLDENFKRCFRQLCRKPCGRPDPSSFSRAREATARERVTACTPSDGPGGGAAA

DOR chimera KOR-TM1 = DOR chimera KOR-TM1 (Homo sapiens, UniProt P41143+P41145, A58V/A61V/C60F/G73V/L55V/L65V/V68S/V75I); test: Chimera DOR-Tango β-arrestin2 recruitment; format: cell-based; conditions: 10 μM modulator
[1] = system: gonadotropin-releasing hormone receptor (GnRHR); conditions: 10 μM; cited from earlier work
cells = test: Toxicity to cells; format: cell-based, human; conditions: at 10 μM
DOR N131V3.35 = DOR N131V3.35 (Homo sapiens, UniProt P41143, N131V); test: Mutant DOR-Tango β-arrestin2 recruitment; format: cell-based; conditions: 10 μM
Sequence of DOR N131V3.35 (P41143 whole entry N131V, one chain of several): as the sequence (P41143 whole entry D95A) above, with A95D, N131V counted along it

DOR S135A3.39 = DOR S135A3.39 (Homo sapiens, UniProt P41143, S135A); test: Mutant DOR-Tango β-arrestin2 recruitment; format: cell-based; conditions: 10 μM
Sequence of DOR S135A3.39 (P41143 whole entry S135A, one chain of several): as the sequence (P41143 whole entry D95A) above, with A95D, S135A counted along it

rat mu-opioid = conditions: ref Tracey et al.[45]; cited from earlier work
mouse delta-opioid = conditions: ref Tracey et al.[45]; cited from earlier work
kappa-opioid receptor = conditions: ref Tracey et al.[45]; cited from earlier work
DOR WT = DOR WT (Homo sapiens, UniProt P41143); test: 3H-DADLE competition binding; conditions: binding experiment in allosteric mode
Sequence of DOR WT (P41143 whole entry): as the sequence (P41143 whole entry D95A) above, with A95D counted along it

M2 muscarinic receptor = biological target: T1, M2 muscarinic receptor (Homo sapiens, UniProt P08172); test: M2-Tango β-arrestin2 recruitment, carbachol dose–response; format: cell-based; conditions: external Na+ increased to 200 mM
T1 sequence (P08172 1-466): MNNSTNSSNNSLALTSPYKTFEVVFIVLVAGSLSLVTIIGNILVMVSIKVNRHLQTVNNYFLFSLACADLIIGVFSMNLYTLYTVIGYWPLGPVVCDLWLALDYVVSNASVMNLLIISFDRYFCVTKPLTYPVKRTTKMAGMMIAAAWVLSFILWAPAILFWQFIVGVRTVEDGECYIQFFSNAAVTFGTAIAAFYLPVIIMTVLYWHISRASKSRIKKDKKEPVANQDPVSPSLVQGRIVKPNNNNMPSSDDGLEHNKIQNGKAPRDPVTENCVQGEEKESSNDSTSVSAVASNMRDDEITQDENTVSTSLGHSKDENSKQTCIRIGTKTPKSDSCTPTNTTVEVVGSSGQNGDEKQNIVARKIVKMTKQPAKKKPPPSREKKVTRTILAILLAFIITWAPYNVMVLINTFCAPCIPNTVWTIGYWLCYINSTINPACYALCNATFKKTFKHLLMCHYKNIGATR

M4 muscarinic receptor = biological target: T2, M4 muscarinic receptor (Homo sapiens, UniProt P08173); test: M4-Tango β-arrestin2 recruitment, carbachol dose–response; format: cell-based; conditions: external Na+ increased to 200 mM
T2 sequence (P08173 1-479): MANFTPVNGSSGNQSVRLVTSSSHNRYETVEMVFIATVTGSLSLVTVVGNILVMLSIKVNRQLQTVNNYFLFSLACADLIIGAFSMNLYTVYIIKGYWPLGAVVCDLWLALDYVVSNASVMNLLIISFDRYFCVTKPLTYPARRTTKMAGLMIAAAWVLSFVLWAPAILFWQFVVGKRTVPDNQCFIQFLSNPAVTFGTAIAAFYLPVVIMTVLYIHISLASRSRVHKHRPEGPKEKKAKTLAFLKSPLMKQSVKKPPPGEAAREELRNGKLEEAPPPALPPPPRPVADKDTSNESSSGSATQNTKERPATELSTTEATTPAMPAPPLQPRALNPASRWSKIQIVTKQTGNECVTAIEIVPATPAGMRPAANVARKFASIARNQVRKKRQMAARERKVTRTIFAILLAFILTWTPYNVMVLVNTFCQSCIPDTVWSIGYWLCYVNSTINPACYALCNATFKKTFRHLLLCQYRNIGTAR

M5 muscarinic receptor = biological target: T3, M5 muscarinic receptor (Homo sapiens, UniProt P08912); test: M5-Tango β-arrestin2 recruitment, carbachol dose–response; format: cell-based; conditions: external Na+ increased to 200 mM
T3 sequence (P08912 1-532): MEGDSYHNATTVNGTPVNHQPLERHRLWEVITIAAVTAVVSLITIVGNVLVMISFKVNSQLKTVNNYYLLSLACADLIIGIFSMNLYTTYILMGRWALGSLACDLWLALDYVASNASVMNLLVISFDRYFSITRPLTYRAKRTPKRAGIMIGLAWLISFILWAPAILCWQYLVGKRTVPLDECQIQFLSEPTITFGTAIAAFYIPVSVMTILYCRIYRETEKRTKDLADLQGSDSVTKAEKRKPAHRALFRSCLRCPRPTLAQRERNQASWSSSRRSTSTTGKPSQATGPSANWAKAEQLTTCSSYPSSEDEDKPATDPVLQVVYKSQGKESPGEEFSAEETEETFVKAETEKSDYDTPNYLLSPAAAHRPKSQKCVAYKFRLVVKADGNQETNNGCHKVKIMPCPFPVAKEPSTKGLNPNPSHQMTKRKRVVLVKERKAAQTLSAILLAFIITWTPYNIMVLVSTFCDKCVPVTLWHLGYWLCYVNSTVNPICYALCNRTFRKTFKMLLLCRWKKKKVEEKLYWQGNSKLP

Sequence of DOR (P41143 whole entry): as the sequence (P41143 whole entry D95A) above, with A95D counted along it

SMILES: N=C(N)NC(=O)c1nc(Cl)c(N)nc1N [Amiloride, amiloride]
- agonist / allosteric activity at DOR (DOR): no activity
- affinity (different GPCRs; allosteric modulation on different GPCRs): > 10 µM
- concentration with activity in biophysical studies (different GPCRs; most biophysical studies using amiloride): > 100 µM

SMILES: NC(N)=NC(=O)c1nc(Cl)c(N2CCCCCC2)nc1N [HMA, 5-(N,N-hexamethylene)amiloride]
- effect of extracellular Na+ on agonistic activity (DOR): slightly increases
- modulator properties at mutant (DOR D95A2.50): almost complete loss of original properties
- allosteric modulation (PAM) at chimera (DOR chimera KOR-TM1): loss of allosteric modulation (PAM)
- functional effect [1]: modest effect

SMILES: N=C(N)NC(=O)c1cnn(-c2cccc3ncccc23)c1C1CC1 [Zoniporide, zoniporide]
- agonist / allosteric activity at DOR (DOR): best PAM without intrinsic agonist activity
- toxicity (cells): no toxicity
- modulator properties at mutant (DOR D95A2.50): almost complete loss of original properties
- allosteric modulation (PAM) at chimera (DOR chimera KOR-TM1): loss of allosteric modulation (PAM)
- ago-PAM properties at mutant (DOR N131V3.35): increase in the ago-PAM properties
- ago-PAM properties at mutant (DOR S135A3.39): increase in the ago-PAM properties
- affinity (rat mu-opioid): 60 nM
- affinity (mouse delta-opioid): 238 nM
- interaction (kappa-opioid receptor): no detectable interaction

SMILES: CC(C)CN(C)c1nc(N)c(C(=O)N=C(N)N)nc1Cl [MIA, 5-(N-methyl-N-isobutyl)amiloride]
- agonist / allosteric activity at DOR (DOR): best ago-PAM
- effect of extracellular Na+ on agonistic activity (DOR): slightly increases
- modulator properties at mutant (DOR D95A2.50): almost complete loss of original properties
- allosteric modulation (PAM) at chimera (DOR chimera KOR-TM1): loss of allosteric modulation (PAM)
- effect on the Ki of naltrindole toward 3H-DADLE (DOR WT): no effect

SMILES: CCN(c1nc(N)c(C(=O)N=C(N)N)nc1Cl)C(C)C [EIPA, 5-(N-ethyl-N-isopropyl)-amiloride]
- agonist / allosteric activity at DOR (DOR): significant agonist and positive allosteric modulation (ago-PAM)

SMILES: Oc1ccc2c3c1O[C@H]1c4[nH]c5ccccc5c4C[C@@]4(O)[C@@H](C2)N(CC2CC2)CC[C@]314 [Naltrindole, naltrindole]
- reversal of the agonist activity of EIPA (DOR): reversed

SMILES: C[N+](C)(C)CCOC(N)=O [carbachol]
- increase of efficacy (M2 muscarinic receptor): more than 3 fold
- increase of efficacy (M4 muscarinic receptor): more than 3 fold
- increase of efficacy (M5 muscarinic receptor): weakly increasing efficacy

SMILES: NC(N)=Nc1ccc2[nH]c3c(c2c1)C[C@@]1(O)[C@H]2Cc4ccc(O)c5c4[C@@]1(CCN2CC1CC1)[C@H]3O5 [5′-GNTI]
- reversal of the agonist activity of EIPA (DOR): reversed

SMILES: CN(C)c1nc(N)c(C(=O)NC(=N)N)nc1Cl [DMA, 5-(N,N-dimethyl)amiloride]
- agonist / allosteric activity at DOR (DOR): lack of DMA activity

SMILES: NC(=Nc1ccccc1)NC(=O)c1nc(Cl)c(N)nc1N [Phenamil, phenamil]
- agonist / allosteric activity at DOR (DOR): inactive

SMILES: NC(N)=Nc1ccc2c3c([nH]c2c1)[C@@H]1Oc2c(O)ccc4c2[C@@]12CCN(CC1CC1)[C@H](C4)[C@]2(O)C3 [6′-GNTI]
- reversal of the agonist activity of EIPA (DOR): reversed

Source: publication PMC9134235 (ACS Omega, 2022)
